Data from paper PMC9332204, “Study of Novel Peptides for Antimicrobial Protection in Solution and on Cotton Fabric” (Molecules, 2022).

Assays:
[1] = system: B. cereus; test: Disc test on agar medium; format: cell-based, Bacillus cereus; conditions: discs, gentamicin disc 10 µg
Procedure: (§1) Initially, the compounds were tested on an agar medium using commercial discs with gentamicin (10 µg) as a standard against B. cereus and P. aeruginosa used as model bacterial strains. As a result, no inhibition zones were observed around the discs with the compounds against both tested strains. With gentamicin, zones (mm in diameter) of 15 mm against B. cereus, and 12 mm against P. aeruginosa, were measured.
(§2) The antibacterial activity of the investigated compounds was tested against Gram-positive Bacillus cereus and Gram-negative Pseudomonas aeruginosa used as model strains (Collection of the Institute of Microbiology, Bulgarian Academy of Sciences). Microbial cultures were maintained at 4 °C on meat-peptone agar (MPA) slants and transferred monthly.

[2] = system: P. aeruginosa; test: Disc test on agar medium; format: cell-based, Pseudomonas aeruginosa; conditions: discs, gentamicin disc 10 µg
Procedure: as §1, §2

[3] = system: replication of HAdV-5 in HEp-2 cells; test: Antiviral activity assay, CPE inhibition; format: cell-based; conditions: Human adenovirus sp., HEp-2, read-out: IC50, antiviral activity on the replication of HAdV-5
Procedure: For checking the viral load, the antiviral screening based on the viral yield reduction technique was used. The cytopathic inhibition assay (CPE) utilizes 100 CCID50 loading in 0.1 mL of a monolayer of confluent cells in 96-well plates. After 1 h of virus adsorption, the extract was added in various concentrations, and cells were incubated for 48 h at 37 °C. The viable cells were stained according to the neutral red uptake procedure and the percentage of CPE inhibition for each concentration of the test sample was calculated using the following formula: % CPE = [ODtest sample − ODvirus control]/[ODtoxicity control − ODvirus control] × 100. The concentration of the material inhibition 50% of viral replication when compared to the virus control was defined as the 50% inhibitory concentration (IC50). The ratio CC50/IC50 was calculated to evaluate the selectivity index (SI).

## CNC(C)C1CCC(N)C(OC2C(N)CC(N)C(OC3OCC(C)(O)C(NC)C3O)C2O)O1 (stereo not drawn) [gentamicin]
[1]
  inhibition zone (mm in diameter): 15 mm
[2]
  inhibition zone (mm in diameter): 12 mm

## NC(=O)c1ncn([C@@H]2O[C@H](CO)[C@@H](O)[C@H]2O)n1 [Ribavirin]
[3]
  IC50: 115 µM
